Each structure is given as a SMILES string. In brackets after ≈: the same amount, converted by molar mass.

One experiment deals with T1, Rac1 (Homo sapiens, UniProt P63000).
T1 construct: GST (cleaved yes); made in house; host or cells: E. coli
The experiment is described as follows: Tiam1-catalyzed guanine nucleotide exchange of Rac1. The class given is biochemical. Conditions: in the presence of Tiam1; read-out: IC50, Rac1 guanine nucleotide exchange reaction. On the procedure:
Rac1 was expressed in E. coli as a GST fusion protein using the vector pGEX2T in accordance with previously described methods [Self and Hall, Meth. Enzymol. 256:3 (1995)]. Purified thrombin-cleaved Rac1 protein was used in the assay.
The Tiam1 DH-PH domain expressed as a fusion protein containing a carboxy terminal 6XHis tag using the plasmid pET28a described by Rossman and Campbell, Meth. Enzymol. 325:25 (2000).
The Tiam1-catalyzed exchange of GDP for GTP of Rac1 was carried out essentially according to the procedure described by Crompton et al., J. Biol.Chem. 275(33):25751 (2000). GDP-bound Rac1 was incubated with [α^32P]-labeled GTP, in the presence of Tiam1 and nucleotide exchange was monitored by following the increase in radioactivity bound to Rac1. Free radioactivity was removed by placing the reaction mixture in the well of a 96-well plate and filtering out the fraction of [α^32P]GTP that is not bound to Rac1. During the screen for the nucleotide exchange antagonists, the compounds were used at 10 μM concentration. The compounds analyzed by the screening methods are further described below.
Compounds that inhibit the Rac1 guanine nucleotide exchange reaction by at least 50% of the control were obtained. The IC50 value of several of the compounds were determined for the guanine nucleotide exchange reaction of Rac1, in the presence of Tiam1.

The next experiment has as its target T2, CD11b/CD18 (Homo sapiens, UniProt P11215).
T2 construct: expressed in transfected cells; host or cells: JY (human B lymphoblastoid) cells
The experiment in a line: Adhesion of JY/CD11b cells to immobilized iC3b. The class given is cell-based. The following applies: dose-dependent; relative to control DMSO treatment. On the procedure: B. Adhesion Assay of JY/CD11b Cells to Immobilized iC3b
Briefly, each well of a 96-well plate was coated overnight at 4° C. with 50 μl glycophorin (10 μg/ml), iC3b (5 μg/ml) or with anti-CD18 monoclonal antibody (22F12C, 5 μg/ml) and anti-CD11b monoclonal antibody (44AACB, 5 µg/ml) in bicarbonate buffer (pH 9.6). Plates were blocked with human serum albumin in D-PBS for one hr at room temperature. JY cells transfected with CD11b (JY/CD11b cells) (100 μl at 1×10^6 cells/ml) in adhesion buffer were added to each well and incubation was carried out at 37° C. for 30 min. Plates were fixed and analyzed as described above in Example 1. Percentage of cells binding was determined using the equation below. [formula]
Data was normalized using the formula: [formula]

Experiment [1] concerns the target T3, ftsZ (Escherichia coli, UniProt P0A9A6). The experiment in a line: ftsZ GTPase assay. Format: biochemical. On the procedure: An alternative assay that may be more sensitive was also devised. In this assay, 100 μg/ml ftsZ was incubated with 0.5 μM ^32P-γ-GTP. The GTPase activity of ftsZ liberates ^32PO4. By terminating the reaction with 25 mg/ml activated charcoal in 100 mM NaH2PO4 and centrifuging the product, the remaining ^32P-γ-GTP is trapped by the charcoal. Accordingly, the ^32PO4 that remains in the supernatant can be measured, providing a measurement of GTPase inhibition.

The target of experiment [2] is T3, ftsZ. The experiment is described as follows: ftsZ polymerization assay. The class given is biochemical. The following applies: read-out: IC50, ftsZ polymerization screen. On the procedure:
A polymerization assay for the identification of ftsZ inhibitors that can be performed in microtiter wells has been devised. The polymerization assay is an adaptation of a tubulin polymerization assay [Bollag et al., Cancer Research 55:2325-2333 (1995)], and involves the reversible polymerization of ftsz in a GTP-dependent fashion.
In the presence of GTP and 10 mM CaCl2, 5 nm ftsZ linear polymers assemble into higher order polymers [Yu et al., EMBO 16:5455-5463 (1997)] that are large enough to be trapped by a 0.2 μm filter. The protein that is retained on the filter can be stained and detected in a colorimetric assay. A reaction consisting of 300 μg/ml of ftsZ polymerized by 100 μM GTP was screened against candidate ftsZ inhibitors at 10 μM.

For experiment [3], the system named is permeable tolC strain overexpressing ENR. The experiment in a line: microbe, parasite or virus in culture. Format: cell-based, E. coli. The following applies: Escherichia coli, read-out: MIC, ENR-overexpressing strain. On the procedure:
(§1) A permeable bacteria] strain (AB734 TN10::tolC) was used in the screening method to maximize the ability of the compounds to cross the gram negative cell wall. Assays were conducted in accordance with the NCCLS protocols referenced herein.
(§2) It was of further interest to determine whether those compounds with antimicrobial activity worked in a ENR-dependent fashion. Two strains of the permeable tolC strain were constructed. In the first strain, the ENR protein was overexpressed by placing it under control of its own promoter on a moderate copy number plasmid, and the second strain served as a control including only the plasmid.

Experiment [4] concerns permeable tolC strain (plasmid only). The experiment in a line: microbe, parasite or virus in culture. Format: cell-based, E. coli. Conditions: Escherichia coli, read-out: MIC, control strain. On the procedure:
as §1, §2

T3 sequence (P0A9A6 whole entry): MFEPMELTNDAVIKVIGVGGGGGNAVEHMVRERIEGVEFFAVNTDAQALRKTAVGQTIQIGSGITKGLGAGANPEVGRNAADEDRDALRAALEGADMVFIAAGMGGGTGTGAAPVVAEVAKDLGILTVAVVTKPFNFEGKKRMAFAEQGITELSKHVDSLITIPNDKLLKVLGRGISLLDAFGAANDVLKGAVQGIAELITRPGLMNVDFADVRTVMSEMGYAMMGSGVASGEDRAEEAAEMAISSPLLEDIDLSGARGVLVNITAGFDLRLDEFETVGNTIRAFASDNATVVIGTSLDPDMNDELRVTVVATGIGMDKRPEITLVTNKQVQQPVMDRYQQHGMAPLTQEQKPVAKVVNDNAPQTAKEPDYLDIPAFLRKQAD

On to `CC(C)Sc1ccc(-c2ccnc(N3CCCC(C)(C)C3)c2)cc1C(F)(F)F` [Cmpd AAB], for which the IC50 at Rac1 worked out at 4.7 µM.

As for `CN(CCCNCc1ccccc1Sc1cc(Cl)cc(Cl)c1)c1ccccc1` [Cmpd AZ], the IC50 on Rac1 amounted to 3.1 µM. On the same count and under the same terms, under `CSc1ccc(-c2ccnc(N3CCC(C)CC3)c2)cc1C(C)(F)F` [Cmpd AAA] stands 3.5 µM. On to `O=[N+]([O-])c1cc(Cl)c(Sc2ccc(Cl)cc2Cl)cc1F` [Cmpd C], for which, on CD11b/CD18, the “stimulation of CD11b/CD18 binding to iC3b” value (“stimulation” for short) is reported as “two times”. On to `CCCCC(CCCC)N(C(=O)CN1CC(c2ccc3c(c2)OCO3)C(C)C1C(C)(C)CCCC)c1ccc(F)c(C)c1` (stereo not drawn) [Cmpd H], for which the “stimulation” value at CD11b/CD18 was “two times”. As to `CN(CCCNCc1ccccc1Sc1c(Cl)cccc1Cl)c1ccccc1` [Cmpd AY], the half-inhibitory concentration (IC50) at Rac1 was 1.9 µM. Regarding `Nc1nc2c(ncn2[C@@H]2O[C@H](COP(=O)(O)OP(=O)(O)O)[C@@H](O)[C@H]2O)c(=O)[nH]1` [GDP], the results for the IC50 at ftsZ [1] and at ftsZ [2] were 8 µM and 250 µM, respectively. For the molecule `CC(C)Sc1ccc(-c2ccnc(N3CCC(NC(=O)OC(C)(C)C)CC3)c2)cc1C(F)(F)F` [Cmpd AAC], the concentration for half-maximal inhibition (IC50) on Rac1 is 5 µM. With `CCCCC(CCCC)N(C(=O)CN1CC(c2ccc3ccccc3c2)C(C(=O)O)C1c1ccc(OC)cc1)c1ccc(F)c(C)c1` (stereo not drawn) [Cmpd I], at CD11b/CD18, the “stimulation” value is recorded as “two times”. With `Oc1cc(Cl)ccc1Oc1ccc(Cl)cc1Cl` [triclosan], the MIC was found to be 1 µg/mL (≈ 3.45 µM) in experiment [3] and 0.031 µg/mL (≈ 0.107 µM) in experiment [4].

For the origin of these results see patent US20030088061A1, “Materials and methods to modulate ligand binding/enzymatic activity of alpha/beta proteins containing an allosteric regulatory site” (priority 2000, published 2003).
